Results taken from patent publication US20220280602A1, “ANTICANCER AGENT AND METHOD FOR PREPARATION OF POROUS SILICA PARTICLE” (LEMONEX INC., priority 2019, published 2022).

Tests used:
[1] = test system: MCF-7 cells expressing LC3-GFP; experiment: Measurement of the number of GFP-LC3 puncta (autophagy induction); type: cell-based; conditions: MCF-7 expressing LC3-GFP, 6 hours, serum-free medium
Method: Using lipofectamine 2000, LC3-GFP plasmid was transfected into MCF-7 cells. Transfected MCF-7 was selected with 800 μg/mL of G418 for 3 months. […] 100,000 MCF-7 cells expressing LC3-GFP were seeded.
40 μg of dye-labeled particles and 4 μg of bec1 peptide were mixed, and the cells were treated for 6 hours in a serum-free medium. Cells were fixed with 4% PFA, and nuclei were stained with DAPI. Images were obtained with a Delta-vision microscope, and the number of GFP-LC3 puncta was measured in 100 cells for each group.

MCF-7 cells = experiment: Assessment of cytotoxicity by MTT assay; type: cell-based; conditions: 1 day treatment
Method: MCF-7 cells were seeded at 10,000 cells/well in 96-well cell culture plates. After 1 day, different concentrations of each particle (4 to 500 μg/mL) were treated with a serum-containing medium in each well for 1 day. Thereafter, the culture was performed for 4 hours while replacing the above medium with a serum-free medium containing 10 μl of MTT assay kit, and the supernatant was aspirated. DMSO was added to each well to dissolve formazan, and reacted for 1 hour. The absorbance was measured at a wavelength of 570 nm, and the cell viability was calculated as a relative value to that of the untreated group.

Sequence: CGGTNVFNATFHIWHSGQFGT (listed as Homo sapiens) [Bec1 peptide]
- Amount of GFP puncta [1]: very little amount
- Cell viability compared to non-treated group (MCF-7 cells): not significantly varied
